# From patent publication US20240175069A1, “BIOSYSTEM FOR PESTICIDE DETECTION” (priority 2022, published 2024)
# Legend:
# CYP2B11 [1] = molecular target: T1, CYP2B11 (Canis lupus familiaris, UniProt P24460); assay: Pesticides screening using CYP2B11 inhibition assay (BOMCC fluorescence, Example 4); conditions: 400 μg/L pesticide; 5 pmol/mL CYP2B11; 3 μM BOMCC
# T1 sequence (P24460 1-494): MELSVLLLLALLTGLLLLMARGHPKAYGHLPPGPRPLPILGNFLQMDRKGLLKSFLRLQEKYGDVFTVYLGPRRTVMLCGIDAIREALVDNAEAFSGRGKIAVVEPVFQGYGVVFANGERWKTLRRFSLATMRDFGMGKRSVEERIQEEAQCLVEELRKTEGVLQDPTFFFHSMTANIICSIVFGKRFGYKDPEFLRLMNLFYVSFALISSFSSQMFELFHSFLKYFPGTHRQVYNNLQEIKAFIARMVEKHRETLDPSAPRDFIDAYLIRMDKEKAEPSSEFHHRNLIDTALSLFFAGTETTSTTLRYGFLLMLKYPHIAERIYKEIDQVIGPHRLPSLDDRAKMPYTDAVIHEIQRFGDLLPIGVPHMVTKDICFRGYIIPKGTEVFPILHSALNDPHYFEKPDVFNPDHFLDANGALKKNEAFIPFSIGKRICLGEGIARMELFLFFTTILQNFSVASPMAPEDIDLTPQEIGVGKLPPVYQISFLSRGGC
# Experimental: This assay was performed in a 96-well plate by adding 50 μL of chemical standard of pesticides in duplicate, previously prepared in assay buffer with 5% acetonitrile. Enzyme mixture consisted of 5 pmol/mL CYP2B11 (Cypex Limited) in the assay buffer: 75 mM potassium phosphate supplemented with 5 mM MgCl2, pH=8.0, containing 333 mM Glucose-6-phosphate and 30 U/mL Glucose-6-phosphate dehydrogenase. After preparation, 50 μL of enzyme mixture were added to each plate and incubated for 10 minutes at 37° C. After incubation, 10 μL of a substrate mixture containing 30 μM NADP^+ and 3 μM BOMCC in the phosphate buffer was added to the wells. The plate was incubated for 60 minutes at 37° C., and the fluorescence was monitored using 410/460 nm as excitation and emission wavelengths, respectively. A blank sample containing buffer solution was measured in same conditions and used to calculate the inhibition of the enzyme activity that was associated with the presence of pesticides concentration.
# CYP2B10 [2] = molecular target: T2, CYP2B10 (Mus musculus, UniProt P12791); assay: Pesticides screening using CYP2B10 inhibition assay (MOBFC fluorescence, Example 1); assay type: biochemical; parameters: purchased Cypex Limited; bacterial membranes, E. coli by own knowledge; conditions: 15 pmol/mL CYP2B10, 10 μM MOBFC, 10% acetonitrile standard; for I (%) at 200 μg/L: 200 μg/L pesticide; for I (%) at 400 μg/L: 400 μg/L pesticide
# T2 sequence (P12791 1-491 isoform P12791-2 L55F/V178I/R251K/K253R/N280H/A281T/V298A/H308R/T321A/S349T/L376M/Q412H/S444N): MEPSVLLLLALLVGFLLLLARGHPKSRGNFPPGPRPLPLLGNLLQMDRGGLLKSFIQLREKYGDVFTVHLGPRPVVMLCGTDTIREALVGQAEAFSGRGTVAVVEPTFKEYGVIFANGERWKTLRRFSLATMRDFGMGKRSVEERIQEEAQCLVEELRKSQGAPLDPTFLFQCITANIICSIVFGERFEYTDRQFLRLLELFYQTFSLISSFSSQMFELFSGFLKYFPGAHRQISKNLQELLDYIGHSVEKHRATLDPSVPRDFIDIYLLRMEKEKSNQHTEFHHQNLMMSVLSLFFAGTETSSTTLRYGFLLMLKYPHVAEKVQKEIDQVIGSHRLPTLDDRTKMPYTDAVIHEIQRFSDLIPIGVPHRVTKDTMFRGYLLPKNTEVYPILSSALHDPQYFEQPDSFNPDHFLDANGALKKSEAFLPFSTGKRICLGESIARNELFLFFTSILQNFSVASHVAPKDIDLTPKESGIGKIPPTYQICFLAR
# Experimental: An inhibition assay was performed using the enzyme CYP2B10 by contacting it to 200 μg/L and 400 μg/L of chlorpyrifos-ethyl, chlorpyrifos-methyl, prochloraz, diazinon and dicofol.
# CYP2B10 [3] = molecular target: T2, CYP2B10; assay: CYP2B10 assay on extracts of spiked mushrooms, validation (Example 7); conditions: mushroom spiked at 0.01 mg/kg, extracted; 15 pmol/mL CYP2B10; 10 μM MOBFC; triplicates over seven days
# Experimental: The bioassay was performed in 500 μL tubes and in triplicate. 50 μL of extract was added to the tubes. Enzyme mixture was prepared following the protocols provided by the manufacturer (Cypex Limited) and consisted of 15 pmol/ml of CYP2B10 Bactosomes in the assay buffer: 75 mM potassium phosphate supplemented with 5 mM MgCl2, pH=8.0, containing 333 mM Glucose-6-phosphate and 30 U/mL Glucose-6-phosphate dehydrogenase. After the preparation, 50 μL of enzyme mixture were added to each tube. After reach room temperature 10 μL of substrate mixture (10 μM MOBFC and 30 μM NADP^+ diluted in potassium phosphate buffer 50 mM) was added to each tube. The tubes were incubated 60 minutes at 37° C. and when time passed, fluorescence signal was measured with a fluorometric reader, 370 nm and 520 nm were the excitation and emission wavelengths, respectively. A blank sample, buffer solution, was measured at the same time and the reduction of the signal, inhibition of enzyme activity, was calculated and associated with the presence of pesticide molecules.
# The validation was carried out during seven days, comparing the signal obtained for triplicate samples of blank and doped mushroom.
# CYP2B10 [4] = molecular target: T2, CYP2B10; assay: CYP2B10 inhibition assay with MOBFC/MOFC reporter substrate mixes (Example 3); assay type: biochemical; parameters: purchased Cypex Limited; bacterial membranes, E. coli by own knowledge; conditions: 400 μg/L dicofol
# Experimental: The enzyme CYP2B10 was exposed to 400 μg/L of dicofol pesticide, and the inhibition percentage was registered when reporter substrate concentration and composition was changed.
# CYP2B11 [5] = molecular target: T1, CYP2B11; assay: Effect of dimethoate in CYP2B11 assay (BOMCC fluorescence, Example 2); assay type: biochemical; parameters: purchased Cypex Limited; conditions: dog, CYP2B11 enzyme (Cypex Limited), pH 8, probe BOMCC (3 μM in substrate mixture); 2 mg/L dimethoate; 10 pmol/mL CYP2B11; 3 μM BOMCC
# Text: Considering the inhibition percentage determined, it is possible to confirm that CYP2B11 enzyme is susceptible to be inhibited by dimethoate pesticide.
# Human CYP2B6 = molecular target: T3, Human CYP2B6 (Homo sapiens, UniProt P20813); assay: Metrafenone inhibition assay on human CYP2B6 (Example 5); assay type: biochemical; conditions: 500 μg/L metrafenone; CYP2B6 2.5 pmol/mL; BOMCC 3 μM
# T3 construct: purchased Thermofisher Scientific; host or cells: baculosomes (microsomes of baculovirus-infected insect cells, by own knowledge)
# T3 sequence (P20813 1-491): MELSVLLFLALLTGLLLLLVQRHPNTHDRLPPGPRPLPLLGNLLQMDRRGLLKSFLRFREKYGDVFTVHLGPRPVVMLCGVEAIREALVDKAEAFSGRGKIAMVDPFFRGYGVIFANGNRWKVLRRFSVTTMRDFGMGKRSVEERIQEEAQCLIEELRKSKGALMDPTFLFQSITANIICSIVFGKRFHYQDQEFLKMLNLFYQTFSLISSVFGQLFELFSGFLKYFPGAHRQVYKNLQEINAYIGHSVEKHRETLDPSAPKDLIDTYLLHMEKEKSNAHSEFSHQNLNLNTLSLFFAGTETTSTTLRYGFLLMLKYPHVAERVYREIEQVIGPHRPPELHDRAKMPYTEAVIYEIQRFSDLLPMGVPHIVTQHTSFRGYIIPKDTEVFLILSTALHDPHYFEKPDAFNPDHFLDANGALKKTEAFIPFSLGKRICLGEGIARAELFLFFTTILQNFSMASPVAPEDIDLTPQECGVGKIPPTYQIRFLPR
# Experimental: (§1) This assay was performed in a 96-well plate by adding 50 μL of 500 μg/L of metrafenone chemical standard to wells in duplicate, previously prepared in assay buffer with 5% acetonitrile. CYP2B11 enzyme mixture consisted of 5 pmol/mL Dog CYP2B11 bactosomes (Cypex Limited) in the assay buffer: 75 mM potassium phosphate supplemented with 5 mM MgCl2, pH=8.0, containing 333 mM Glucose-6-phosphate and 30 U/mL Glucose-6-phosphate dehydrogenase. CYP2B6 enzyme mixture consisted of 2.5 pmol/ml of Vivid® Human CYP2B6 baculosomes (Thermofisher Scientific) in the assay buffer: 75 mM potassium phosphate, pH=8.0, containing 333 mM Glucose-6-phosphate and 30 U/mL Glucose-6-phosphate dehydrogenase.
# (§2) After preparation, 50 μL of each enzyme mixture were added to each plate and incubated for 10 minutes at 37° C. After incubation, 10 μL of a substrate mixture containing 30 μM NADP^+ and 3 μM BOMCC in the phosphate buffer was added to the wells. The plate was incubated for 60 minutes at 37° C., and the fluorescence was monitored using 410/460 nm as excitation and emission wavelengths, respectively. A blank sample containing buffer solution was measured in same conditions and used to calculate the inhibition percentage of the activity of the enzymes in presence of the pesticide metrafenone.
# Dog CYP2B11 = molecular target: T4, Dog CYP2B11 (Canis lupus familiaris, UniProt P24460); assay: Metrafenone inhibition assay on CYP2B11 (Example 5); assay type: biochemical; conditions: 500 μg/L metrafenone; CYP2B11 5 pmol/mL; BOMCC 3 μM
# T4 construct: purchased Cypex Limited; host or cells: bactosomes (bacterial membranes; E. coli by own knowledge)
# T4 sequence (P24460 1-494): T1 sequence (P24460 1-494)
# Experimental: as §1, §2
structure (smiles),measurement,setting,value
N#Cc1c(Cl)c(Cl)c(Cl)c(C#N)c1Cl [Chlorothalonil],I(%),CYP2B11 [1],62.3%
CCOP(=S)(OCC)Oc1nc(Cl)c(Cl)cc1Cl [Chlorpyrifos-ethyl],I(%),CYP2B11 [1],94.2%
same,I (%) at 200 μg/L,CYP2B10 [2],26.8%
same,I (%) at 400 μg/L,CYP2B10 [2],46.8%
COP(=S)(OC)Oc1nc(Cl)c(Cl)cc1Cl [Chlorpyrifos-methyl],I(%),CYP2B11 [1],96.0%
same,I (%) at 200 μg/L,CYP2B10 [2],49.5%
same,I (%) at 400 μg/L,CYP2B10 [2],77.9%
same,Average I (%),CYP2B10 [3],46.8%
CC1(C)C(C=C(Cl)Cl)C1C(=O)OC(C#N)c1cccc(Oc2ccccc2)c1 (stereo not drawn) [Cypermethrin],I(%),CYP2B11 [1],17.5%
Clc1ccc(C(c2ccc(Cl)cc2)C(Cl)(Cl)Cl)cc1 [DDT],I(%),CYP2B11 [1],70.7%
CCOP(=S)(OCC)Oc1cc(C)nc(C(C)C)n1 [Diazinon],I(%),CYP2B11 [1],84.1%
OC(c1ccc(Cl)cc1)(c1ccc(Cl)cc1)C(Cl)(Cl)Cl [Dicofol],I(%),CYP2B11 [1],79.0%
same,I (%) at 200 μg/L,CYP2B10 [2],19.0%
same,I (%) at 400 μg/L,CYP2B10 [2],30.6%
same,I(%),"CYP2B10 [4]; MOBFC 0.0 μM, MOFC 10.0 μM",72.9%
same,I(%),"CYP2B10 [4]; MOBFC 2.0 μM, MOFC 8.0 μM",50.6%
same,I(%),"CYP2B10 [4]; MOBFC 3.3 μM, MOFC 6.6 μM",37.4%
same,I(%),"CYP2B10 [4]; MOBFC 5.0 μM, MOFC 5.0 μM",24.3%
same,I(%),"CYP2B10 [4]; MOBFC 10.0 μM, MOFC 0.0 μM",16.8%
CC(C)NC(=O)N1CC(=O)N(c2cc(Cl)cc(Cl)c2)C1=O [Iprodione],I(%),CYP2B11 [1],15.9%
CCCC(Cn1cncn1)c1ccc(Cl)cc1Cl (stereo not drawn) [Penconazole],I(%),CYP2B11 [1],87.8%
CCCN(CCOc1c(Cl)cc(Cl)cc1Cl)C(=O)n1ccnc1 [Prochloraz],I(%),CYP2B11 [1],94.6%
same,I (%) at 200 μg/L,CYP2B10 [2],60.3%
same,I (%) at 400 μg/L,CYP2B10 [2],72.0%
same,Average I (%),CYP2B10 [3],54.2%
CC12CC1(C)C(=O)N(c1cc(Cl)cc(Cl)c1)C2=O (stereo not drawn) [Procymidone],I(%),CYP2B11 [1],24.5%
Fc1ccc(Oc2ccnc3cc(Cl)cc(Cl)c23)cc1 [Quinoxyfen],I(%),CYP2B11 [1],18.1%
CNC(=O)CSP(=S)(OC)OC [dimethoate],"inhibition at 60 min, 2 mg/L",CYP2B11 [5],56.8%
COc1cc(C)c(C(=O)c2c(OC)ccc(Br)c2C)c(OC)c1OC [metrafenone],I(%),Human CYP2B6,0.0%
same,I(%),Dog CYP2B11,35.2%
